Usually EC50 stands for the concentration at which the effect is half-maximal. A lower EC50 goes with an effect from little substance. Usually melting point stands for the temperature of the solid-liquid transition.

For nine compounds, EC50 and melting point results are on record in patent US20080051418A1, “Arylalkanoic Acid Derivative” (priority 2004, published 2008).

The target in one data set is T1, PPARγ-RXRα heterodimer (Homo sapiens, UniProt P37231).
T1 construct: expressed in transfected cells; host or cells: CHO-K1
T1 sequence (P37231 1-505): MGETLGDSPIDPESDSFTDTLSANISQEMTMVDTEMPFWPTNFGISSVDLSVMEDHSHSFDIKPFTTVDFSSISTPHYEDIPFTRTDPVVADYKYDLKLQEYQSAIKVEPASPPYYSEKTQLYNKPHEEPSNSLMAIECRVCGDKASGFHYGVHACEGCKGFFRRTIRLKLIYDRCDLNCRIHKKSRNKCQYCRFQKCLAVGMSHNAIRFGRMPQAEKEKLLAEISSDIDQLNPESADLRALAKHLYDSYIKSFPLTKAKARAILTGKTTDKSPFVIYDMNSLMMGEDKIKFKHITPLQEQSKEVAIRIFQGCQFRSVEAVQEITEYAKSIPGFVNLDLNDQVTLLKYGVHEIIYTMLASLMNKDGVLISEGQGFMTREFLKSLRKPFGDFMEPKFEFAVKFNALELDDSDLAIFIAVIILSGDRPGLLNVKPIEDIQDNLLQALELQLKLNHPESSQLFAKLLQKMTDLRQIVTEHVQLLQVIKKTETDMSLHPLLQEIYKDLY
T1 sequence (P19793 1-462 partner): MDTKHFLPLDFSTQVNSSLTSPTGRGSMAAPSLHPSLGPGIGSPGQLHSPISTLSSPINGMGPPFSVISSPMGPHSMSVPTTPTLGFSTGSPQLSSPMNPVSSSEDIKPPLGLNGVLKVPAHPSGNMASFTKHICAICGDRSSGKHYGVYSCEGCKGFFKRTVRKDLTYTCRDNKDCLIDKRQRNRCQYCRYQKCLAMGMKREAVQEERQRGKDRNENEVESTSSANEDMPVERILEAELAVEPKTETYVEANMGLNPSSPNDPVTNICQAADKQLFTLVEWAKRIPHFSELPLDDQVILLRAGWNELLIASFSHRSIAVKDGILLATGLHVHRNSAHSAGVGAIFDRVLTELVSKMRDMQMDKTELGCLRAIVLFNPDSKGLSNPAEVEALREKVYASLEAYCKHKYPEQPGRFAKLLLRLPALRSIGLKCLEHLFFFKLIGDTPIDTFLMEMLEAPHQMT
In words: PPARγ-RXRα heterodimer ligand activity (luciferase reporter). Format: cell-based. As to conditions: PPARγ:RXRα:4ERPP/CHO-K1 cells, 18-24 hr, concentration showing 50% of the maximum induction rate. As to the method:
The PPARγ:RXRα:4ERPP/CHO-K1 cells described in WO03/099793 were cultured in a Ham F12 medium [manufactured by Life Technologies, Inc., US] containing 10% calf fetal serum [manufactured by Life Technologies, Inc., US], sown in a 96-well white plate [manufactured by Corning Coster Corporation, US] at 2×10^4 cells/well, and incubated overnight in a carbon dioxide gas incubator at 37° C.
Then, the medium was removed from the 96 well white plate, 80 μl of Ham F12 medium containing 0.1% fatty acid-free bovine serum albumin (BSA) and a test compound (20 μl) were added, and the cells were incubated for 18-24 hr in a carbon dioxide gas incubator at 37° C. The medium was removed, 40 μl of PicaGene 7.5 (manufactured by Wako Pure Chemical Industries, Ltd.) diluted 2-fold with HBSS (HANKS' BALANCED SALT SOLUTION) [manufactured by BIO WHITTAKER, US] was added. After stirring, the luciferase activity was determined using the 1420 ARVO Multilabel Counter [manufactured by PerkinElmer, US].
The induction rate was calculated from the luciferase activity of each test compound based on the luciferase activity of the test compound non-administration group as 1. The test compound concentration and the induction rate were analyzed by PRISM [manufactured by GraphPad Software, Inc., US] to calculate EC50 value (compound concentration showing 50% of the maximum value of induction rate) of the test compound.

SMILES strings stand for the structures.

Consider `CC(C)OCCOc1ccc(CCCOc2nn(C)cc2CC(=O)O)c(Oc2ncc(C(F)(F)F)cc2Cl)c1` [Example 177, (3-{3-[2-{[3-chloro-5-(trifluoromethyl)pyridin-2-yl]oxy}-4-(2-isopropoxyethoxy)phenyl]propoxy}-1-methyl-1H-pyrazol-4-yl)acetic acid], for which the melting point fell in the range of 103.5 to 104.5 °C. The compound further displayed an EC50 at PPARγ-RXRα heterodimer of 1.5 nM.

Turning to `CCCOc1cc(CCCOc2c(CC(=O)O)cccc2OC)n(Cc2ccccc2OC)n1` [Example 83, (2-{3-[1-(2-methoxybenzyl)-3-propoxy-1H-pyrazol-5-yl]propoxy}-3-methoxyphenyl)acetic acid], the melting point was 79 to 82 °C. On PPARγ-RXRα heterodimer, this compound had an EC50 of 18 nM.

`CC(C)Oc1ccc(CCCOc2cc(CCC(=O)O)n(C3CCCCC3)n2)c(Oc2ncc(C(F)(F)F)cc2Cl)c1` [Example 144, 3-{3-[3-(2-{[3-chloro-5-(trifluoromethyl)pyridin-2-yl]oxy}-4-isopropoxyphenyl)propoxy]-1-cyclohexyl-1H-pyrazol-5-yl}propanoic acid] yielded a melting point of 114 to 115 °C. Moreover, the EC50 on PPARγ-RXRα heterodimer came out at 3.7 nM.

Regarding `CC(C)Oc1cc(CCCOc2nn(Cc3ccccc3)cc2CC(=O)O)n(Cc2ccc(F)cc2Cl)n1` [Example 92, (1-benzyl-3-{3-[1-(2-chloro-4-fluorobenzyl)-3-isopropoxy-1H-pyrazol-5-yl]propoxy}-1H-pyrazol-4-yl)acetic acid], the melting point lay within 121 to 123 °C. This compound came in with an EC50 on PPARγ-RXRα heterodimer of 5.1 nM.

Regarding `CCCOc1cc(CCCOc2c(CC(=O)O)cccc2OC)n(Cc2ccc(F)cc2F)n1` [Example 82, (2-{3-[1-(2,4-difluorobenzyl)-3-propoxy-1H-pyrazol-5-yl]propoxy}-3-methoxyphenyl)acetic acid], the melting point was 77 to 80 °C. At PPARγ-RXRα heterodimer, this compound returned an EC50 of 26 nM.

Compound `CC(C)c1cc(CCCOc2ncccc2CC(=O)O)n(Cc2ccc(Cl)cc2Cl)n1` [Example 37, (2-{3-[1-(2,4-dichlorobenzyl)-3-isopropyl-1H-pyrazol-5-yl]propoxy}pyridin-3-yl)acetic acid] gave a melting point of 111 to 112 °C. The compound also yielded an EC50 at PPARγ-RXRα heterodimer of 6.4 nM.

In turn, `COc1cccc(CC(=O)O)c1OCCCc1cc(C(C)C)nn1Cc1ccc(Cl)cc1Cl` [Example 35, (2-{3-[1-(2,4-dichlorobenzyl)-3-isopropyl-1H-pyrazol-5-yl]propoxy}-3-methoxyphenyl)acetic acid] displayed a melting point of 101 to 102 °C. At PPARγ-RXRα heterodimer, this compound showed an EC50 of 2.7 nM.

Turning to `CC(C)Oc1ccc(CCCOc2nn(Cc3ccccc3)cc2CC(=O)O)c(Oc2ncc(Cl)cc2Cl)c1` [Example 133, [1-benzyl-3-(3-{2-[(3,5-dichloropyridin-2-yl)oxy]-4-isopropoxyphenyl}propoxy)-1H-pyrazol-4-yl]acetic acid], the melting point fell in the range of 111 to 113 °C. It took 1.2 nM to reach a half-maximal effect at PPARγ-RXRα heterodimer (EC50).

As to `CC(C)Oc1cc(CCCOc2ncccc2CC(=O)O)n(Cc2ccc(F)cc2Cl)n1` [Example 93, (2-{3-[1-(2-chloro-4-fluorobenzyl)-3-isopropoxy-1H-pyrazol-5-yl]propoxy}pyridin-3-yl)acetic acid], the melting point fell in the range of 90 to 91 °C. On PPARγ-RXRα heterodimer, this compound showed an EC50 of 42 nM.
